Measured values published in patent US20110020843A1, “LABEL-FREE METHODS RELATED TO PHOSPHODIESTERASES” (priority 2009, published 2011).
Like-named read-outs stand apart in the source and are kept apart here.

Legend:
[1] = tested on: quiescent A431 cells (endogenous PDE4 isoforms); assay: Label-free Epic RWG biosensor DMR assay of PDE inhibitors in synchronized quiescent A431 cells; format: cell-based, human; settings: for DMR signal induced by PDE inhibitor: each at 12.5 micromolar, 22k cells per well, synchronized in HBSS under low CO2 for 2 hrs, vs vehicle; for DMR signal upon stimulation: synchronized in HBSS buffer for a shorter time (<90 min), data not shown
Protocol: Cells were typically grown using ˜1 to 2×10^4 cells per well at passage 3 to 15 suspended in 50 μl of the corresponding culture medium in the biosensor microplate, and were cultured at 37° C. under air/5% CO2 for ˜1 day. Except for A431 which was subject to ˜20 hr starvation through continuously culture in the serum-free DMEM, the other cell types were directly assayed without starvation.
Epic® wavelength interrogation system (Corning Inc., Corning, N.Y.) was used for whole cell sensing. This system consists of a temperature-control unit, an optical detection unit, and an on-board liquid handling unit with robotics. The detection unit is centered on integrated fiber optics, and enables kinetic measures of cellular responses with a time interval of ˜15 sec. The compound solutions were introduced by using the on-board liquid handling unit (i.e., pippetting).
The RWG biosensor is capable of detecting minute changes in local index of refraction near the sensor surface. Since the local index of refraction within a cell is a function of density and its distribution of biomass (e.g., proteins, molecular complexes), the biosensor exploits its evanescent wave to non-invasively detect ligand-induced dynamic mass redistribution in native cells. The evanescent wave extends into the cells and exponentially decays over distance, leading to a characteristic sensing volume of ˜150 nm, implying that any optical response mediated through the receptor activation only represents an average over the portion of the cell that the evanescent wave is sampling. The aggregation of many cellular events downstream the receptor activation determines the kinetics and amplitudes of a ligand-induced DMR.
All studies were carried out at a controlled temperature (28° C.). At least two independent sets of experiments, each with at least three replicates, were performed.
We further examined the DMR signal, if any, of the quiescent A431 cells upon treatment with PDE inhibitors. […] The quiescent A431 cells obtained under the same culture condition were used. Here the initial seeding numbers of cells were relatively low (˜20K cells per well in a 384 well Epic biosensor microplate tissue culture treated). […] After washing with the serum free medium, the cells were continuously cultured in the serum free medium for another 24 hrs to reach a quiescent state. Here the quiescent state was largely achieved through serum withdrawl. […] The cell membrane bound carbonic anahydrase is a known sensor for CO2 level.
In FIG. 4 the quiescent cells were achieved primarily through serum withdrawl. We were interested in the quiescent cells achieved through both contact inhibition and serum withdrawl. To do so, much higher initial seeding numbers of cells (>=25k cells per well for the 384 well Epic biosensor microplate) were used. […] Here both quiescent cells were subject to the same synchronization condition (2 hr incubation in the HBSS assay solution in a low CO2 environment).
Here the quiescent A431 cells were used using 22k cells per well in 384 well Epic biosensor microplates, followed by one day (˜24 hrs) culture in serum medium and 1 day (˜24 hrs) serum free medium, and sequential synchronization in the HBSS buffer solution under a relatively low CO2 environment for 2 hrs. […] For comparison, the DMR signal of cells stimulated with the buffer only (“Vehicle”) were included.

[2] = tested on: intracellular cAMP level of A431 cells; assay: Chemiluminescence quantification of cyclic AMP in whole cell lysate; format: cell-based, human
Protocol: A431 cells were seeded in 96 well TCT microplate at 80000 cells/well, cultured for 20 hrs and starved for an extra 20 hrs. Cells were washed two time with HBSS and incubated with 100 μl of HBSS, Leibovitz's L-15 medium (Gibco) or 1 μM of Acetozamine (Sigma) in HBSS for 2 hrs in the Epic instrument. […] The medium or buffer was removed and cells were lysed in 100 μm al of lysis buffer (from cAMP HTS immunoassay kit, Millipore) containing 1 mM IBMX. 50 μl of cell extracts as well as cAMP standard were then analyzed using the same procedure described by the vendor.
A431 Cells were cultured in a serum rich medium on Corning tissue culture treated 96 well microplate until it reached a high confluency (˜95%). After washing, the cells were continuously cultured in a serum free medium for overnight. At this point, the cells were at ˜100% confluency. After washing with corresponding solution, the cells are incubated at the same low CO2 environment (˜2% CO2) for 2 hr. The cells were then lysed with a cell lysis buffer containing 100 micromolar IBMX to block the PDE activity, followed by cAMP measurements, using the protocol as recommended by the supplier.

[3] = molecular target: endogenous Gs-coupled β2-adrenergic receptor (Homo sapiens, UniProt P07550); settings: A431 cells; Epic DMR vs whole cell cAMP kit (FIG. 3)
Sequence of endogenous Gs-coupled β2-adrenergic receptor (P07550 whole entry): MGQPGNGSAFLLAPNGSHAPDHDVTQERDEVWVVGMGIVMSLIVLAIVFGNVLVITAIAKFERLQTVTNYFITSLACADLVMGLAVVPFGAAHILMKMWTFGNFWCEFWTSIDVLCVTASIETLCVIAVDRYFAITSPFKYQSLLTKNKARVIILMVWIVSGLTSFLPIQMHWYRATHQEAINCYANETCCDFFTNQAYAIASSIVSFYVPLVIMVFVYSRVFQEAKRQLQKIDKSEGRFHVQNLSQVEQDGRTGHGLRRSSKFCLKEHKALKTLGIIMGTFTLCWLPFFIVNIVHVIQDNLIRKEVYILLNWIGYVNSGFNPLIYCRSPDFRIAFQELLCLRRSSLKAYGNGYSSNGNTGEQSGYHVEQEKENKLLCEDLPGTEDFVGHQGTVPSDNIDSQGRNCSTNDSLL
Protocol: For biosensor cellular assays, compound solutions were made by diluting the stored concentrated solutions with the HBSS (1× Hanks balanced salt solution, plus 20 mM Hepes, pH 7.1), and transferred into a 384 well polypropylene compound storage plate to prepare a compound source plate. Two compound source plates were made separately when a two-step assay was performed. In parallel, the cells were washed twice with the HBSS and maintained in 30 μl of the HBSS to prepare a cell assay plate. Both the cell assay plate and the compound source plate(s) were then incubated in the hotel of the reader system. After incubation the baseline wavelengths of all biosensors in the cell assay microplate were recorded and normalized to zero. Afterwards, a 2 to 10 min continuous recording was carried out to establish a baseline, and to ensure that the cells reached a steady state. Cellular responses were then triggered by transferring 10 μl of the compound solutions into the cell assay plate using the on-board liquid handler.

| Structure (SMILES) | DMR signal induced by PDE inhibitor [1] | also measured |
| --- | --- | --- |
| COc1ccc([C@@H]2CNC(=O)C2)cc1OC1CCCC1 [R-rolipram] | Gs-like DMR signal | EC50 ([1]; Homo sapiens, A-431, quiescent cells achieved through both contact inhibition and serum withdrawl (>=25k cells per well), 2 hr incubation in HBSS, low CO2, read-out: EC50 of DMR response): 0.25 µM; DMR signal upon stimulation [1]: inconsistent DMR signal |
| O=C1CN2Cc3c(ccc(Cl)c3Cl)N=C2N1 [anagrelide] | did not result in any detectable DMR signals |  |
| Cc1ccc([N+](=O)[O-])cc1S(=O)(=O)N(C)C [BRL-50481] | did not result in any detectable DMR signals |  |
| CCCCOc1cc(CC2CNC(=O)N2)ccc1OC (centres unmarked) [Ro-20-1724] | Gs-like DMR signal |  |
| CCCOc1ccccc1-c1nc2nn[nH]c2c(=O)[nH]1 [zaprinast] | did not result in any detectable DMR signals |  |
| CC(=O)Nc1nnc(S(N)(=O)=O)s1 [acetazolamide] |  | basal cAMP level ([2]; quiescent A431 synchronized 2 hr, low CO2, in L-15 medium containing 1 micromolar acetazolamide): 0.74±0.1 pmole/160K cells |
| CCCn1c(=O)c(C)cn2nc(N)nc12 [ICI63197] | Gs-like DMR signal |  |
| COCc1nc2c([nH]1)c(=O)n(C)c(=O)n2CC(C)C [MMPX] | did not result in any detectable DMR signals |  |
| CNC[C@H](O)c1ccc(O)c(O)c1 [epinephrine] |  | potency to activate DMR signal relative to potency to cause whole cell cAMP accumulation [3]: much higher potency |
| CCc1ccc2c(-c3cccc(Cl)c3)nc(=O)n(CC)c2n1 [YM-976] | Gs-like DMR signal |  |
| Cc1[nH]c(=O)c(C#N)cc1-c1ccncc1 [milrinone] | did not result in any detectable DMR signals |  |
| Clc1cccc(Nc2nnc(-c3ccccc3)c3ccccc23)c1 [MY-5445] | did not result in any detectable DMR signals |  |
| CC(C)Cn1c(=O)n(C)c(=O)c2[nH]cnc21 [IBMX] |  | EC50 ([1]; quiescent A431 (~20K cells per well, serum withdrawl), the three synchronized conditions wherein IBMX led to a detectable DMR signal, read-out: potency of IBMX-induced DMR signal (EC50)): ~10 µM; IBMX-induced DMR signal ([1]; quiescent A431 synchronized in CO2 independent medium L-15, highest doses examined (FIG. 4c)): little DMR signals; IBMX-induced DMR signal ([1]; synchronized in 1×HBSS 20 mM Hepes pH 7.1 with or without acetamolamide, low CO2, 2 hr (FIG. 4A, 4B)): dose-dependent and robust DMR signal; IBMX-induced DMR signal ([1]; synchronized in CO2 independent L-15 medium containing acetamolamide at 1 micromolar (FIG. 4D)): robust DMR signal; DMR signal upon stimulation [1]: inconsistent DMR signal; impact on intracellular cAMP levels (whole cell lysate) ([2]; 10 nanomolar to 100 micromolar, all synchronization conditions, data not shown): little impact |
